Results on 32 molecules are retold here after patent US20140090094A1, “MODULATORS OF SLC22A7” (BAYER INTELLECTUAL PROPERTY GmbH, priority 2011, published 2014).

In series [1] the target is T1, OAT2r (Rattus norvegicus, UniProt Q5RLM2).
T1 construct: expressed in transfected cells
T1 sequence (Q5RLM2 1-535): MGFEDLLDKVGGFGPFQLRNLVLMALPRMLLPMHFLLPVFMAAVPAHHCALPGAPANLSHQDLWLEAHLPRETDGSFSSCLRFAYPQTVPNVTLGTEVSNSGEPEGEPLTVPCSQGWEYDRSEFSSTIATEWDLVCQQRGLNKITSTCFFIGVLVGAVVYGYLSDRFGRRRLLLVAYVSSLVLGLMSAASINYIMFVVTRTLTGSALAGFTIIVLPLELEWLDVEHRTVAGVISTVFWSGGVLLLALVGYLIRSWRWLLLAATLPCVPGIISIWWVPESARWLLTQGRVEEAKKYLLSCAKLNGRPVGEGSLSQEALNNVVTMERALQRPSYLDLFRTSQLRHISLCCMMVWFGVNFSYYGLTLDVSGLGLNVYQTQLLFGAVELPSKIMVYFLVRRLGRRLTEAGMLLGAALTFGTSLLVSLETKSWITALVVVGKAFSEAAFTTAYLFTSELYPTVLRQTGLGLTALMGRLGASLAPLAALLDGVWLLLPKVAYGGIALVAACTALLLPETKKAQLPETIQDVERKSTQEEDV
In words: 1 min uptake into 293 cells expressing OAT2 from rat.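 Note: uptake at 37 °C, read by liquid scintillation counting or LC-ESI-MS/MS, carrier-mediated part as induced-minus-uninduced expression difference corrected for baseline content, protein by BCA assay.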 The following applies: 1 min uptake, 0.1 μmol/l radiotracer or 10 μmol/l unlabeled compound. The class given is cell-based.

The target in series [2] is T1, OAT2r. Put plainly: 24 h accumulation in lysates of OAT2r-expressing versus control cells (LC-MS/MS). The series is classed as cell-based. The following applies: for increase in OAT2r cell lysates versus control cells (factor f): 24 h incubation, compound at 100 μmol/l. As to the method: A substrate search by LC-MS difference shading was performed with 293 cells stably transfected to express OAT2 from rat. […] To verify that trigonelline is directly transported by OAT2 and not just increased indirectly, initial rates of uptake (1 min, 37° C.) of trigonelline (10 μmol/l) were determined by LC-MS/MS.
With trigonelline as substrate lead, compounds wholly or partly related in structure were analyzed for transport by OAT2 from rat.
After centrifugation (1 min, 16000×g, 20° C.) of thawed lysates, 100 μl of the supernatant was mixed with either 10 μl unlabeled MPP+ iodide (0.5 ng/μl) or biphenyl-4-carboxylic acid (Sigma-Aldrich) as internal standard. Of this mixture, […] were analyzed by LCMS/MS on a triple quadrupole mass spectrometer (4000 Q TRAP, Applied Biosystems, Darmstadt, Germany). […] Atmospheric pressure ionization with positive or negative electrospray was used. For quantification (scan time 150 ms), the optimal collision energy for argon-induced fragmentation in the second quadrupole was determined for each analyte. […] Linear calibration curves were constructed from at least six standards which were prepared using control cell lysates as solvent. Sample analyte content was calculated from the analyte response ratio and the slope of the calibration curve, obtained by linear regression. With LC-MS quantitation, solute content of cell lysates was determined for 4 conditions ([…]): a) transporter expression on, uptake buffer; b) expression off, uptake buffer; c) expression on, substrate in uptake buffer; d) expression off, substrate in uptake buffer. Acute uptake mediated by heterologously expressed carrier was then calculated as (c−a)−(d−b). This approach takes into account endogenous solute content and non-specific uptake. Protein was measured by the BCA assay (Pierce) with bovine serum albumin as standard. The protein content of MS samples was estimated from 3 matched cell dishes.

For a further series, the target named is T2, OAT2h (Homo sapiens, UniProt Q9Y694).
T2 construct: expressed in transfected cells; host or cells: 293 cells (HEK-293), pEBTetD/OAT2h, doxycycline-inducible
T2 sequence (Q9Y694 1-546 isoform Q9Y694-2): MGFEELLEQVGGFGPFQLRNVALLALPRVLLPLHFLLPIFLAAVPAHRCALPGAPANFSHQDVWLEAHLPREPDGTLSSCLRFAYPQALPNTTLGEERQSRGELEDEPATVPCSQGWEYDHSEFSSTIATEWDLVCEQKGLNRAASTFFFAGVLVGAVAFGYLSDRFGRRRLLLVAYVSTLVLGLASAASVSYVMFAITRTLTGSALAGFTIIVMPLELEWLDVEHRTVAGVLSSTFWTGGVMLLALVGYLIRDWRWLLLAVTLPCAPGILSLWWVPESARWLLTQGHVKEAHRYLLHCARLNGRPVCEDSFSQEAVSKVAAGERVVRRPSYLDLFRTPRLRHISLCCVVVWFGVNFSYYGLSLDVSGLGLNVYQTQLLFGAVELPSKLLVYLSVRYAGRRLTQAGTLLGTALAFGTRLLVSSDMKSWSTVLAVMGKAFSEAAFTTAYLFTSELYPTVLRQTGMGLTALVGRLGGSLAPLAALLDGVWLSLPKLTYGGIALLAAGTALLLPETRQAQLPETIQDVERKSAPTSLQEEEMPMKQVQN
Put plainly: 1 min uptake into 293 cells expressing OAT2 from human. The class given is cell-based. The following applies: radiotracer.

The target of series [3] is T1, OAT2r. In words: trans-stimulation of efflux of 3H-orotic acid via OAT2r. The series is classed as cell-based. The conditions noted are these: 1 mmol/l compound in uptake buffer, 1 min, preloaded cells.
Substrate in series [4]: O=C(O)c1cc(=O)[nH]c(=O)[nH]1
Put plainly: cells, lysate or membranes. The following applies: other: saturation of OAT2r-mediated uptake, 1 min.

Consider `C[n+]1cccc(C(N)=O)c1` [1-methylnicotinamide], for which the “transport by OAT2r (in words)” value at OAT2r [1] is listed as “no transport”.
As for `Nc1ccccc1C(=O)O` [2-aminobenzoic acid], at OAT2r [1], the “transport by OAT2r (in words)” value is on record as “no transport”. Also, the “increase in OAT2r cell lysates versus control cells (factor f)” value (“increase” below) on OAT2r [2] came to 1.1.
Regarding `CCN(CC)CCC(=O)O` [3-(diethylamino)propionic acid], on OAT2r [2], the “increase” value turned out to be 1.1.
For the molecule `Nc1cccc(C(=O)O)c1` [3-aminobenzoic acid], on OAT2r [1], the “transport by OAT2r (in words)” value is “no transport”. Further, the “increase” value at OAT2r [2] is reported as 1.4.
With `NC(=O)CC[C@H](N)C(=O)O` [3H-glutamine, glutamine], the “uptake by OAT2h (in words)” value on OAT2h is “no uptake”.
As to `Nc1ccc(C(=O)O)cc1` [4-aminobenzoic acid], at OAT2r [1], the “transport by OAT2r (in words)” value is reported as “no transport”. Also, the “increase” value at OAT2r [2] is given as 1.1.
On to `NCC(=O)CCC(=O)O` [5-aminolevulinic acid], for which, at OAT2r [1], the “transport by OAT2r (in words)” value was “no transport”.
On the same count and under the same terms, with `O=C(O)c1[nH]c(=O)[nH]c(=O)c1F` [5-fluoroorotic acid] the entry was “transported efficiently”.
As to `O=C1CC[C@@H](C(=O)O)N1` [5-oxoproline], the “transport by OAT2r (in words)” value at OAT2r [1] was “no transport”.
Consider `C[N+](C)(C)C[C@H](O)CC(=O)[O-]` [L-carnitine], for which, at OAT2r [2], the “increase” value was found to be 1.0.
On to `O=C1C[C@@H](C(=O)O)NC(=O)N1` [L-dihydroorotic acid], for which the “transport by OAT2r (in words)” value at OAT2r [1] is “no transport”.
In the case of `O=C(O)[C@@H]1CCCN1` [L-proline], the “transport by OAT2r (in words)” value at OAT2r [1] was “no transport”.
Turning to `O=C(O)c1cccnc1C(=O)O` [Quinolinic acid], the “increase” value at OAT2r [2] is 2.7. The “difference in lysate content between OAT2r and control cells (in words)” value at OAT2r [2] (up to 1 h incubation time) is on record as “virtually no difference”.
On to `O=C1CC(=O)NC(=O)N1` [barbituric acid], for which, at OAT2r [1], the “transport by OAT2r (in words)” value is reported as “no transport”.
On the same count and under the same terms, as for `CN(CC(=O)O)C(=N)N` [creatine], the entry is “no transport”.
Consider `CC1=NCC[C@@H](C(=O)O)N1` [ectoine], for which the “increase” value on OAT2r [2] amounted to 1.2.
On to `NCC1(CC(=O)O)CCCCC1` [gabapentin], for which the “increase” value at OAT2r [2] was 1.2.
The same measure, in the same setting: with `C[N+](C)(C)CC(=O)[O-]` [glycine betaine] the figure was 1.0.
For the molecule `N=C(N)NCC(=O)O` [guanidinoacetic acid], on OAT2r [1], the “transport by OAT2r (in words)” value is “no transport”.
Still for that read-out and setting: as for `O=C(O)CC1NC(=O)NC1=O` (stereo not shown) [hydantoin-5-acetic acid], the entry is “no transport”; as for `O=C(O)c1c[nH]c(=O)[nH]c1=O` [isoorotic acid], “transported efficiently”.
Consider `O=C(O)c1cc(=O)c2ccccc2[nH]1` [kynurenic acid], for which the “transport by OAT2r (in words)” value on OAT2r [1] is reported as “no transport”.
For `CC(O)C(=O)O` (stereo not shown) [lactate], the “trans-stimulation of efflux of 3H-orotic acid (in words)” value on OAT2r [3] is given as “rejects”.
With `O=C(O)CC(O)C(=O)O` (stereo not shown) [malate], the “trans-stimulation of efflux of 3H-orotic acid (in words)” value on OAT2r [3] is listed as “rejects”.
Turning to `NC(=O)c1cccnc1` [nicotinamide], the “transport by OAT2r (in words)” value on OAT2r [1] is reported as “no transport”. Moreover, the “increase” value on OAT2r [2] is given as “no significant increase”.
`O=C(O)c1ccc[n+]([C@@H]2O[C@H](COP(=O)(O)O)[C@@H](O)[C@H]2O)c1` [nicotinic acid mononucleotide]: the “transport by OAT2r (in words)” value at OAT2r [1] is given as “no transport”.
Same read-out and setting: as for `O=C([O-])c1ccc[n+]([C@@H]2O[C@H](CO)[C@@H](O)[C@H]2O)c1` [nicotinic acid riboside], the entry is “transported slightly more efficiently than trigonelline”.
Turning to `O=C(O)c1cccnc1` [nicotinic acid], at OAT2r [1], the “transport by OAT2r (in words)” value is “no transport”. The “increase” value on OAT2r [2] is recorded as “no significant increase”.
The corresponding values for `Cc1cc2nc3c(=O)[nH]c(=O)nc-3n(C[C@H](O)[C@H](O)[C@H](O)CO)c2cc1C` [riboflavin] are “no transport” and 1.2.
Regarding `C[N+]1(C)CCC[C@H]1C(=O)[O-]` [stachydrine], the “transport by OAT2r (in words)” value at OAT2r [1] is “no transport”. At OAT2r [2], the “increase” value was 1.2.
For `Cc1ncc(C[n+]2csc(CCO)c2C)c(N)n1` [thiamine], the “transport by OAT2r (in words)” value at OAT2r [1] is given as “no transport”.

B1: OAT2r (Rattus norvegicus) (protein)
chain: T1 sequence (Q5RLM2 1-535)
For B1, the Km in series [4] was 200 (95% confidence interval: 160-240) μmol/l.
